# Columns and labels:
# [1] = target: T1, CDC25A (Homo sapiens, UniProt P30304); experiment: Ki from OMFP hydrolysis kinetics (Lineweaver-Burk), CDC25A; assay type: biochemical; settings: 20 nM CDC25A, 1–25 μM OMFP; mean ± S.E.; read-out: Ki CDC25A
# T1 construct: Recombinant forms of the catalytic domains of CDC25A, -B and -C were obtained through the vectors pET28a-CDC25A-cd, pET28a-CDC25B-cd and pET28a-CDC25C-cd; made in house
# T1 sequence (P30304 376-482 limits assumed): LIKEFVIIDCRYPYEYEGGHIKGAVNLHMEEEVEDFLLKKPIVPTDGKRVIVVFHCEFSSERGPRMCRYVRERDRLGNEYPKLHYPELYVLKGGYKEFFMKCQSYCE
# Experimental: To measure the inhibition constant (Ki) of the recombinant forms of CDC25A, -B and -C towards the various inhibitors, the affinity of the different forms of CDC25 towards OMFP was measured either in the absence or in the presence of fixed concentrations of the various inhibitors. The reaction mixture contained 20 nM CDC25A, or 10 nM CDC25B, or 40 nM CDC25C, and different concentrations of the various inhibitors in 500 μL final volume of 20 mM Tris-HCl, pH 7.8, 1 mM DTT. DMSO was used as vehicle control. […] The corresponding Lineweaver-Burk plots allowed the calculation of the KM for OMFP and of the Vmax of OMFP hydrolysis, expressed as a.u./minmax. […] The Ki values were obtained from the decrease of a.u./minmax in the presence of the inhibitor, according to the equation a.u./mimmax’ = a.u./mimmax/{1 + ([I]/Ki)}, where a.u./mimmax’ represents the Vmax measured in the presence of the concentration [I] of the inhibitor. The Ki values were obtained from at least three independent experiments and reported as mean ± S.E.
# [2] = test system: SAN cells; experiment: Cell cycle analysis by PI flow cytometry, SAN cells; assay type: cell-based, human; settings: 100 μM, 16 and 24 h
# Experimental: As CDC25 phosphatases are key cell cycle regulators, the effect of 7 on cell cycle progression was investigated in detail. To this aim, asynchronously growing A2058 and SAN cells were treated at different times with 100 μM compound 7, and then cell cycle analysis was cytofluorimetrically monitored after propidium iodide (PI) incorporation. […] After 16-h incubation with […], cells were mainly and almost equally distributed in G0/G1 and G2/M phases (the ratio between them being 0.96), whereas the cellular population in the S phase was essentially undetectable. […] A similar general picture emerged from the effect of compound 7 on cell cycle progression of SAN cells (Supplementary Figure S3).
# Cells were seeded into 6-well plates at 3 × 10^5 cells/well for 24 h at 37°C; after the addition of 100 μM 7 or 0.5% DMSO as a vehicle control, the incubation of treated cells continued for 16 or 24 h. After each treatment, cells were harvested with trypsin, centrifuged and the pellet was resuspended in phosphate-buffered saline (PBS). For cell cycle analysis, cells were fixed with 70% (v/v) cold ethanol and stored at −20°C for 1 h. […] After incubation at 4°C for 30 min, cells were analyzed with a FACScan flow cytometer (Becton Dickinson) for evaluating the distribution in cell cycle phases or the presence of nuclei with a DNA content lower than the diploid.
smiles,measurement,setting,value
"O=C(O)C1CCCCC1c1c2ccc(=O)cc-2oc2cc(O)ccc12 (centres unmarked) [Compound 7, 2-(6-hydroxy-3-oxo-3H-xanthen-9-yl)cyclohexanecarboxylic acid]",Ki,[1],0.65 ± 0.04 µM
same,cell distribution in the G2/M phase,[2],increase of cell distribution in the G2/M phase

# Source: article PMC4741889, “Ligand-based chemoinformatic discovery of a novel small molecule inhibitor targeting CDC25 dual specificity phosphatases and displaying in vitro efficacy against melanoma cells” (Oncotarget, 2015)
